Data: PubChem BioAssay AID2060619 (Molecular Pharmacology Branch, DTP, NCI, 2025)

System: 323965-272-R-J2-PDC complex spheroid viability
Assay: Anticancer human tumor 323965-272-R-J2-PDC patient-derived pancreatic carcinoma cell line growth inhibition [CLK]
Conditions: for IC50: curve of first compound; for viability, T/C: stronger effect = lower value
Outline: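 Multi-cell-type spheroids combined patient-derived tumor cells with HUVEC endothelial cells and human mesenchymal stem cells. Paired agents were dosed in half-log steps down from about clinical Cmax, or from 10 microM where Cmax was unknown.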

[1] = second compound 0.0316 µM, first compound 0.0316 µM
[2] = second compound 0.0316 µM, first compound 0.1 µM
[3] = second compound 0.0316 µM, first compound 0.316 µM
[4] = second compound 0.0316 µM, first compound 1 µM
[5] = second compound 0.0316 µM, first compound 3.16 µM
[6] = second compound 0.0316 µM, first compound 10 µM
[7] = second compound 0.1 µM, first compound 0.0316 µM
[8] = second compound 0.1 µM, first compound 0.1 µM
[9] = second compound 0.1 µM, first compound 0.316 µM
[10] = second compound 0.1 µM, first compound 1 µM
[11] = second compound 0.1 µM, first compound 3.16 µM
[12] = second compound 0.1 µM, first compound 10 µM
[13] = second compound 0.316 µM, first compound 0.0316 µM
[14] = second compound 0.316 µM, first compound 0.1 µM
[15] = second compound 0.316 µM, first compound 0.316 µM
[16] = second compound 0.316 µM, first compound 1 µM
[17] = second compound 0.316 µM, first compound 3.16 µM
[18] = second compound 0.316 µM, first compound 10 µM
[19] = second compound 1 µM, first compound 0.0316 µM
[20] = second compound 1 µM, first compound 0.1 µM
[21] = second compound 1 µM, first compound 0.316 µM
[22] = second compound 1 µM, first compound 1 µM
[23] = second compound 1 µM, first compound 3.16 µM
[24] = second compound 1 µM, first compound 10 µM
[25] = second compound 3.16 µM, first compound 0.0316 µM
[26] = second compound 3.16 µM, first compound 0.1 µM
[27] = second compound 3.16 µM, first compound 0.316 µM
[28] = second compound 3.16 µM, first compound 1 µM
[29] = second compound 3.16 µM, first compound 3.16 µM
[30] = second compound 3.16 µM, first compound 10 µM
[31] = second compound 10 µM, first compound 0.0316 µM
[32] = second compound 10 µM, first compound 0.1 µM
[33] = second compound 10 µM, first compound 0.316 µM
[34] = second compound 10 µM, first compound 1 µM
[35] = second compound 10 µM, first compound 3.16 µM
[36] = second compound 10 µM, first compound 10 µM
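Further: spheroids exposed to agents for seven days before readout.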
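Wherever viability, T/C is given: percent of DMSO vehicle control wells so 100% = untreated growth.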

`C#Cc1c(F)ccc2cc(O)cc(-c3ncc4c(N5CC6CCC(C5)N6)nc(OCC56CCCN5CC(F)C6)nc4c3F)c12` (centres undefined) + CNC(=O)c1ccc(Nc2nc(OC3CCCC3)c3c(-c4ccc5nc(C)oc5c4)c[nH]c3n2)c(OC)c1 gave an IC50 (second compound 0.0316 µM) of over 10000 nM, an IC50 (second compound 0.1 µM) of 2630 nM and an IC50 (second compound 0.316 µM) of 633 nM. For the same molecule, the IC50 (second compound 1 µM) was under 31.6 nM, the IC50 (second compound 3.16 µM) was under 31.6 nM and the IC50 (second compound 10 µM) was under 31.6 nM. For the same molecule, the viability, T/C [1] was 92.6%, the viability, T/C [2] was 88.8% and the viability, T/C [3] was 98.8%. For the same molecule, the viability, T/C [4] was 74.3%, the viability, T/C [5] was 62.6% and the viability, T/C [6] was 51.4%. The viability, T/C [7] was 75%, the viability, T/C [8] was 77.9% and the viability, T/C [9] was 62.5%. The viability, T/C [10] was 58.7%, the viability, T/C [11] was 47.8% and the viability, T/C [12] was 38.6%. The viability, T/C [13] was 58.9%, the viability, T/C [14] was 59.8% and the viability, T/C [15] was 51.9%. For the same molecule, the viability, T/C [16] was 49.3%, the viability, T/C [17] was 35.8% and the viability, T/C [18] was 32.3%. For the same molecule, the viability, T/C [19] was 43.2%, the viability, T/C [20] was 37.7% and the viability, T/C [21] was 42.4%. For the same molecule, the viability, T/C [22] was 39.3%, the viability, T/C [23] was 30.8% and the viability, T/C [24] was 23.2%. The viability, T/C [25] was 36.5%, the viability, T/C [26] was 43.9% and the viability, T/C [27] was 36.8%. For the same molecule, the viability, T/C [28] was 33.5%, the viability, T/C [29] was 26% and the viability, T/C [30] was 20.2%. It also gave a viability, T/C [31] of 39.6%, a viability, T/C [32] of 38.2% and a viability, T/C [33] of 38.1%. For the same molecule, the viability, T/C [34] was 29.8%, the viability, T/C [35] was 25.7% and the viability, T/C [36] was 19.6%.

In the case of `C=C(F)C(=O)N1CCN(c2nc(OCC3CCCN3C)nc3c2CCN(c2cccc4cccc(Cl)c24)C3)CC1CC#N` (centres undefined) + CNC(=O)c1ccc(Nc2nc(OC3CCCC3)c3c(-c4ccc5nc(C)oc5c4)c[nH]c3n2)c(OC)c1, the IC50 (second compound 0.0316 µM) is reported as 7910 nM, the IC50 (second compound 0.1 µM) is reported as 31.6 nM and the IC50 (second compound 0.316 µM) is reported as under 31.6 nM. It also gave an IC50 (second compound 1 µM) of under 31.6 nM, an IC50 (second compound 3.16 µM) of under 31.6 nM and an IC50 (second compound 10 µM) of under 31.6 nM. It also gave a viability, T/C [1] of 69.7%, a viability, T/C [2] of 49.6% and a viability, T/C [3] of 52.8%. For the same molecule, the viability, T/C [4] was 78%, the viability, T/C [5] was 85.2% and the viability, T/C [6] was 17.7%. It also gave a viability, T/C [7] of 47.7%, a viability, T/C [8] of 40.4% and a viability, T/C [9] of 39.6%. The viability, T/C [10] was 48.5%, the viability, T/C [11] was 64% and the viability, T/C [12] was 9.35%. The viability, T/C [13] was 36.1%, the viability, T/C [14] was 28.4% and the viability, T/C [15] was 32.9%. For the same molecule, the viability, T/C [16] was 33.4%, the viability, T/C [17] was 45.2% and the viability, T/C [18] was 1.42%. The viability, T/C [19] was 25.8%, the viability, T/C [20] was 22% and the viability, T/C [21] was 25.6%. It also gave a viability, T/C [22] of 27.8%, a viability, T/C [23] of 31% and a viability, T/C [24] of 0.63%. The viability, T/C [25] was 26.2%, the viability, T/C [26] was 20.6% and the viability, T/C [27] was 22.1%. For the same molecule, the viability, T/C [28] was 23.6%, the viability, T/C [29] was 28.9% and the viability, T/C [30] was 0.56%. For the same molecule, the viability, T/C [31] was 23.2%, the viability, T/C [32] was 20.8% and the viability, T/C [33] was 21.2%. For the same molecule, the viability, T/C [34] was 28.3%, the viability, T/C [35] was 24.8% and the viability, T/C [36] was 0.31%.
